Measured values published in the supplement of paper PMC10307832.

Assays:
Test in all cases: relative viability (nuclei count vs DMSO), 5 days (fraction); higher = more cells survive
Shikonin + Pictilisib = compound: CC(C)=CC[C@@H](O)C1=CC(=O)c2c(O)ccc(O)c2C1=O [Shikonin] + CS(=O)(=O)N1CCN(Cc2cc3nc(-c4cccc5[nH]ncc45)nc(N4CCOCC4)c3s2)CC1 [Pictilisib] (partner 1 µM)
Procedure, shortened: (§1)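 Lung cancer cell lines were pin-tool dosed in 1536-well plates on the day after seeding, with either a lone drug or a fixed anchor-drug dose plus five library-drug doses (not always all listed) in √10 steps. Nuclei were counted on 4× images after 5 days. Relative viability is the ratio of treated-well to vehicle-well nuclei counts, with each value a median of duplicate plates.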

Shikonin + AZD7762 = compound: CC(C)=CC[C@@H](O)C1=CC(=O)c2c(O)ccc(O)c2C1=O [Shikonin] + NC(=O)Nc1cc(-c2cccc(F)c2)sc1C(=O)N[C@H]1CCCNC1 [AZD7762] (partner 0.2 µM)
Procedure, shortened: as §1

Shikonin + Trametinib = compound: CC(C)=CC[C@@H](O)C1=CC(=O)c2c(O)ccc(O)c2C1=O [Shikonin] + CC(=O)Nc1cccc(-n2c(=O)n(C3CC3)c(=O)c3c(Nc4ccc(I)cc4F)n(C)c(=O)c(C)c32)c1 [Trametinib] (partner 0.02 µM)
Procedure, shortened: as §1

[1] = compound: CC(C)N(CCCNC(=O)Nc1ccc(C(C)(C)C)cc1)C[C@H]1O[C@@H](n2ccc3c(N)ncnc32)[C@H](O)[C@@H]1O + N=C(N)NC(=N)NCCc1ccccc1 [Phenformin] (partner 250 µM)
Procedure, shortened: as §1

| Cell Line | relative viability (Shikonin + Pictilisib; first compound 0.01 µM) | relative viability (Shikonin + Pictilisib; first compound 0.1 µM) | relative viability (Shikonin + Pictilisib; first compound 0.3162 µM) | relative viability (Shikonin + Pictilisib; first compound 1 µM) | relative viability (Shikonin + AZD7762; first compound 0.01 µM) | relative viability (Shikonin + AZD7762; first compound 0.1 µM) | relative viability (Shikonin + AZD7762; first compound 0.3162 µM) | relative viability (Shikonin + AZD7762; first compound 1 µM) | relative viability (Shikonin + Trametinib; first compound 0.01 µM) | relative viability (Shikonin + Trametinib; first compound 0.1 µM) | relative viability (Shikonin + Trametinib; first compound 0.3162 µM) | relative viability (Shikonin + Trametinib; first compound 1 µM) | relative viability ([1]; first compound 0.08 µM) | relative viability ([1]; first compound 0.253 µM) | relative viability ([1]; first compound 2.53 µM) | relative viability ([1]; first compound 8 µM) | relative viability ([1]; first compound 0.8 µM) |
| --- | --- | --- | --- | --- | --- | --- | --- | --- | --- | --- | --- | --- | --- | --- | --- | --- | --- |
| IA-LM | 0.363 | 0.364 | 0.337 | 0.305 |  |  |  |  |  |  |  |  |  |  |  |  |  |
| NCI-H441 | 0.621 | 0.436 | 0.485 | 0.437 | 1.39 | 0.935 | 1.16 | 1.43 | 0.468 | 0.487 | 0.528 | 0.451 | 0.813 | 0.923 | 0.776 | 0.824 |  |
| NCI-H322M | 0.498 | 0.526 | 0.496 | 0.504 | 0.59 | 0.568 | 0.451 | 0.572 | 0.498 | 0.459 | 0.513 | 0.564 | 0.795 | 0.711 | 0.749 | 0.762 | 0.75 |
| NCI-H520 |  | 0.393 | 0.263 | 0.348 |  |  |  |  | 0.685 | 0.631 | 0.677 | 0.679 | 0.606 | 0.342 | 0.655 | 0.618 | 0.353 |
| COR-L23 | 1.09 | 0.831 | 0.889 | 0.741 |  |  |  |  | 0.769 | 0.685 | 0.622 | 0.508 | 0.467 | 0.418 | 0.426 | 0.418 | 0.434 |
| NCI-H2126 | 0.508 | 0.5 | 0.496 | 0.553 | 1.03 | 1.01 | 1.11 | 1.08 | 0.549 | 0.553 | 0.607 | 0.571 | 0.523 | 0.529 | 0.534 | 0.496 | 0.52 |
| LC-2-ad | 0.336 | 0.506 | 0.469 | 0.408 | 0.756 | 0.919 | 0.863 | 0.949 | 0.962 | 1.02 | 1.02 | 0.945 | 0.587 | 0.546 | 0.6 | 0.565 | 0.526 |
| NCI-H1915 | 0.975 | 1.09 | 1.05 | 0.958 | 0.695 | 0.752 | 0.728 | 0.729 | 0.308 | 0.31 | 0.309 | 0.298 | 0.362 | 0.388 | 0.388 | 0.353 | 0.378 |
| NCI-H1793 | 0.359 | 0.251 | 0.241 | 0.304 | 0.555 | 0.531 | 0.494 | 0.629 | 0.393 | 0.414 | 0.392 | 0.417 | 0.396 |  | 0.371 | 0.316 | 0.336 |
| COR-L 105 | 0.428 | 0.358 | 0.438 | 0.336 |  |  |  |  | 0.387 | 0.445 | 0.442 | 0.387 | 0.393 | 0.503 | 0.394 | 0.473 | 0.583 |
| SW 1573 | 0.616 | 0.604 | 0.558 | 0.532 |  |  |  |  | 0.615 | 0.502 | 0.502 | 0.112 | 0.262 | 0.403 | 0.391 | 0.378 | 0.435 |
| NCI-H2228 | 0.344 | 0.438 | 0.465 | 0.252 |  |  |  |  | 0.342 | 0.441 | 0.536 | 0.494 | 0.403 | 0.297 | 0.274 | 0.231 | 0.298 |
| NCI-H2009 | 0.817 | 1.13 | 0.671 | 0.187 |  |  |  |  | 0.256 | 0.292 | 0.245 | 0.254 | 0.489 | 0.496 | 0.474 | 0.426 | 0.475 |
| NCI-H661 | 0.372 | 0.427 | 0.39 | 0.38 |  |  |  |  | 0.559 | 0.536 | 0.505 | 0.576 | 0.28 | 0.27 | 0.288 | 0.305 | 0.276 |
| NCI-H2342 |  |  |  |  | 0.503 | 0.451 | 0.471 | 0.472 | 0.902 | 0.686 | 0.88 | 0.843 | 0.574 | 0.553 | 0.532 | 0.493 | 0.499 |
| NCI-H1299 | 0.76 | 1.08 | 0.711 | 0.429 |  |  |  |  |  |  |  |  |  |  |  |  |  |
| NCI-H1650 | 0.682 | 0.684 | 0.481 | 0.571 |  |  |  |  | 0.582 | 0.492 | 0.523 | 0.491 | 0.311 | 0.424 | 0.429 | 0.473 |  |
| NCI-H2023 | 0.225 | 0.31 | 0.223 | 0.257 |  |  |  |  | 0.546 | 0.534 | 0.64 | 0.56 | 0.41 | 0.427 | 0.405 | 0.353 | 0.445 |
| SW 900 |  |  |  |  | 0.769 | 0.634 | 0.262 | 0.542 | 0.809 | 0.934 | 0.969 | 0.741 | 0.719 | 0.634 | 0.541 | 0.486 |  |
| SK-MES-1 | 0.352 | 0.392 | 0.413 | 0.368 |  |  |  |  | 0.595 | 0.57 | 0.575 | 0.71 | 0.663 | 0.669 | 0.69 | 0.617 | 0.692 |
| NCI-H1648 |  |  |  |  | 0.829 |  | 0.825 | 0.457 | 0.422 |  | 0.464 | 0.503 |  |  |  |  |  |
| NCI-H522 |  |  |  |  | 0.912 | 0.957 | 0.864 | 0.806 | 0.747 | 0.747 | 0.871 | 0.646 | 0.606 | 0.673 | 0.664 | 0.56 | 0.677 |
| A549 | 0.746 | 0.569 | 0.644 | 0.488 |  |  |  |  |  |  |  |  | 0.183 | 0.142 | 0.152 | 0.105 | 0.164 |
| NCI-H1563 | 0.629 | 0.719 | 0.675 | 0.566 |  |  |  |  |  |  |  |  | 0.67 | 0.627 | 0.666 | 0.697 | 0.626 |
| ABC-1 | 0.718 | 0.776 | 0.538 | 0.407 |  | 1.13 | 0.644 | 0.741 |  |  |  |  | 0.235 | 0.246 | 0.266 | 0.233 |  |
